What was measured:
UGT1A10 = molecular target: T1, UGT1A10 (Homo sapiens, UniProt Q9HAW8); assay: Inhibition of recombinant UGT-catalyzed 4-MU glucuronidation; assay type: biochemical; conditions: pH 7.4, probe 4-methylumbelliferone (4-MU), 30 μM, 100 μM compound, 4-MU probe substrate, negative = activation
T1 construct: purchased BD Gentest Corp. (Woburn, MA, USA); host or cells: baculovirus-infected insect cells
T1 sequence (Q9HAW8 26-530): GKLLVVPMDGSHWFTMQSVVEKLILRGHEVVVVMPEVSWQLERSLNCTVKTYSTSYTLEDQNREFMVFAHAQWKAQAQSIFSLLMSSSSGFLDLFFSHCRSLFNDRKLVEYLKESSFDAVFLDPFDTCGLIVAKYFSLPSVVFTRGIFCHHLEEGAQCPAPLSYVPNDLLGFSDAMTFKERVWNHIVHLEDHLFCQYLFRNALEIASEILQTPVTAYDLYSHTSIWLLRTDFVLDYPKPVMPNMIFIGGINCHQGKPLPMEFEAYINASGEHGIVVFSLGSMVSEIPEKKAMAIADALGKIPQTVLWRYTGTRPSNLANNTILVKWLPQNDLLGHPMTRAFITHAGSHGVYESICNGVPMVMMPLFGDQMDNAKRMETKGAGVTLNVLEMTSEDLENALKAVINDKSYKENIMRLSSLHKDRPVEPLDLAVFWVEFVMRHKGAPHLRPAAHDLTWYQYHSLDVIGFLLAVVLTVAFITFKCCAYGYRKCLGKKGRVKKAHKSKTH
Description: (§1) Sigma-Aldrich (St Louis, MO, USA) provided the following constituents in the incubation mixture: 4-methylumbelliferone (4-MU), 4-methylumbelliferone-β-D-glucuronide (4-MUG), Tris-HCl, 7-hydroxycoumarin, and uridine-diphosphoglucuronic acid (UDPGA) (trisodium salt). All other compounds were of high-performance liquid chromatography (HPLC) grade or of the highest grade commercially available. For enzyme sources, recombinant UGT isoforms expressed in baculovirus-infected insect cells were purchased from BD Gentest Corp. (Woburn, MA, USA), including UGT1A1, 1A3, 1A6, 1A7, 1A8, 1A9, 1A10, 2B4, 2B7, 2B15, and 2B17.
(§2) 4-MU, a nonspecific probe substrate for all the UGT isoforms, was employed to investigate the inhibition of MEF and NIR towards the activity of UGT isoforms. The incubation and analytical methods have been previously described. […] MEF and NIR were dissolved in the DMSO to make a stock solution of 20 mM, and various concentrations of working solutions were prepared through dilution with DMSO. 4-MU was used as a non-selective substrate of UGTs. There was a 5-min pre-incubation step at 37 °C before the reaction was initiated by the addition of UDPGA. 4-MU and inhibitors were previously dissolved in DMSO, and the total concentration of DMSO was 1%. The reactions were continued at 37 °C for 120 min for UGT1A1, UGT1A3, UGT1A10, UGT2B4, UGT2B7, UGT2B15 and UGT2B17, 30 min for UGT1A6, UGT1A7, UGT1A8, and UGT1A9, respectively. Reactions were terminated by the addition of 100 μL acetonitrile with 7-hydroxycoumarin (100 μM) as internal standard. The incubation mixtures were then centrifuged at 12,000 r/min for 10 min. 2 μL supernatant was injected into the UPLC system for analysis. An ACQUITY UPLC System (Waters, Milford, MA, USA) equipped with UV detector was used to analyze the samples, and the separation of all the compounds were carried out using a ACQUITY UPLC® BEH C18 (2.1 × 100 mm, 1.7 μm Waters) at a flow rate of 0.2 mL/min and UV detector at 316 nm. The mobile phase was consisted of ultrapure water containing 0.5% formic acid (A) and acetonitrile (B). The following gradient condition was used: 0–3.5 min, 10–65% B; 3.5–4.0 min, 65% B; 4.0–9.0 min, 10% B. To calculate the standard curve 0.1–100 μM of 4-MUG was used through drawing the peak area ration of 4-MUG/internal standard towards the concentration range of 4-MUG. The curve was linear over this concentration range, with an r^2 value > 0.99.
(§3) The inhibition type and Kinetics were determined for the inhibition of NTR towards UGT1A3, UGT1A7 and UGT1A9. The glucuronidation velocity of 4-MU was determined at multiple concentrations of 4-MU and NTR. Dixon and Lineweaver–Burk plots were employed to determine the inhibition type, and the second plot of the slopes from the Lineweaver–Burk plot versus the compound concentrations was utilized to calculate the Ki value. The determination of IC50 was calculated using Probit analysis in SPSS11.5 (SPSS, Chicago, IL, USA). The Student’s t-test was adopted at a significance level of p < 0.05 to determine statistically significant differences among experimental groups.

UGT1A8 = molecular target: T2, UGT1A8 (Homo sapiens, UniProt Q9HAW9); assay: as above; assay type: biochemical; conditions: pH 7.4, probe 4-methylumbelliferone (4-MU), 750 μM, 100 μM compound, 4-MU probe substrate, negative = activation
T2 construct: purchased BD Gentest Corp. (Woburn, MA, USA); host or cells: baculovirus-infected insect cells
T2 sequence (Q9HAW9 26-530): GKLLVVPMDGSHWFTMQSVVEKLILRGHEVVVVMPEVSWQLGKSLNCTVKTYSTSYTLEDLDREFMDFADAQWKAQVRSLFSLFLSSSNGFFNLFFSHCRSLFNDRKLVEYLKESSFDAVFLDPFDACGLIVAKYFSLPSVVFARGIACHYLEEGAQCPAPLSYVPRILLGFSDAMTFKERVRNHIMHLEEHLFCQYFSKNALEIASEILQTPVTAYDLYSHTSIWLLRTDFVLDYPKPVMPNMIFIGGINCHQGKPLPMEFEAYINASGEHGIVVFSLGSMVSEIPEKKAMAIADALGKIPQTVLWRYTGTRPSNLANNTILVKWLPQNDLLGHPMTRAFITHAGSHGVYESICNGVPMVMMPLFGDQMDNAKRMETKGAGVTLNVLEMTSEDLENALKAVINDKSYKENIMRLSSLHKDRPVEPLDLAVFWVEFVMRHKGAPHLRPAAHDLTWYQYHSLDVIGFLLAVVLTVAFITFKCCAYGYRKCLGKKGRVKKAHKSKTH
Description: as §1, §2, §3

[1] = set-up: method as in PMID 27130074; conditions: after administration of 200 mg/kg MGF; cited from earlier work

Row | Compound | inhibition at 120 min, 100 µM (UGT1A10) | inhibition at 30 min, 100 µM (UGT1A8) | Cmax [1] | AUCNTR/AUCMGF [1]
1 | O=c1c2cc(O)c(O)cc2oc2cc(O)c([C@@H]3O[C@H](CO)[C@@H](O)[C@H](O)[C@H]3O)c(O)c12 [MGF, 1,3,6,7-tetrahydroxyxanthone-C-2-β-D-glucoside] | -86.4% | -70.9% | 202.58 ng/mL | 
2 | O=c1c2cc(O)c(O)cc2oc2cc(O)cc(O)c12 [NTR, 1,3,6,7-tetrahydroxyxanthone] | -272% | 57% | < 3 ng/mL | < 3%

Reference: PMC6152678, “In Vitro Comparative Study of the Inhibitory Effects of Mangiferin and Its Aglycone Norathyriol towards UDP-Glucuronosyl Transferase (UGT) Isoforms” (Molecules : A Journal of Synthetic Chemistry and Natural …, 2017)
